{"source": "patent US4888339A", "about": "“Agent for prophylaxis and treatment of cardiac hypertrophy” (Tanabe Seiyaku Co., Ltd., priority 1986, dated 1989)", "type_in_all_cases": "in vivo", "key": {"rats": {"test_system": "rats", "experiment": "Oral toxicity in rats", "conditions": "5 g/kg, observed for 5 days", "from_the_text": "Moreover, the compounds (I) of this invention have low toxicity."}, "[1]": {"test_system": "spontaneously hypertensive rats (SHR)", "experiment": "Activity for inhibiting cardiac hypertrophy, intraperitoneal administration to SHR (Experiment 2)", "conditions": "0.5 mg/kg/day for 10 weeks", "description": "The test compound: (4S)-1-methyl-3-[(2S)-2-[N-((1S)-1-carboxy-3-phenylpropyl)amino]propionyl]-2-oxo-imidazolidine-4-carboxylic acid hydrochloride was dissolved in distilled pure water and intraperitoneally administered to spontaneously hypertensive rats (SHR) (4 weeks old age at the beginning of experiment, groups of 9 rats) at a dose of 0.5 mg/kg/day for 10 weeks.\n(§1) Twenty-four hours after the final dosing, the SHR was killed by bleeding under ether anesthesia. The weight of heart was measured and the weight of heart per 100 g of body weight (relative heart weight) was calculated."}, "[2]": {"test_system": "spontaneously hypertensive rats (SHR)", "experiment": "Activity for inhibiting cardiac hypertrophy, oral administration to SHR (Experiment 1)", "conditions": "5 mg/kg/day for 10 weeks", "description": "The test compound: (4S)-1-methyl-3-[(2S)-2-[N-((1S)-1-ethoxycarbonyl-3-phenylpropyl)amino]propionyl]-2-oxo-imidazolidine-4-carboxylic acid hydrochloride was dissolved in distilled pure water and orally administered to spontaneously hypertensive rats (SHR) (4 weeks old age at the beginning of experiment, groups of 6 rats) at a dose of 5 mg/kg/day for 10 weeks.\nas §1, with “calculated. After that, the heart was used for the measurement of cross sectional area of the heart.” for “calculated.”\nMethod for measurement of cross sectional area of heart is as follows:\n(i) After weighing the excised heart, the excised heart was immersed in 10% neutral buffered formalin solution for about one week to fix said heart. The fixed heart was cut at a definitive region crossing the left and right ventricles to obtain a sample (thickness: about 2 mm). The sample was again immersed in a 10% neutral buffered formalin solution overnight, treated with paraffin in a usual manner (Note 1) and then stained with hematoxyin eosine (HE).\n(ii) The microscopic image of the stained sample was examined by an image analyzer (Note 2) to give the ratio of the area of stained region to the area of unstained region (the latter area being the gap produced in preparing the sample).\n(iii) The real area of the sample was obtained by an image analyzer and then multiplied by the ratio obtained in the above (ii) to give the cross sectional area of the heart.\n[Note 1]: It is disclosed in \"Byori Gijutsu Mannual\" (Mannual for Pathorogical Technology) 3, Technology for Histopathorogical Preparation, ed. by Nippon Byori Gakkai, issued on Mar. 30, 1981 by Ishiyaku Shuppan K.K.\n[Note 2]: Nikon three tube color television camera and Nikon Ruzex II, manufactured by Nippon Kogaku K.K.\nThe inhibitory ratio was calculated by the following equation: [formula]"}, "[3]": {"conditions": "SHR, versus non-administ. group"}}}
{"compound": "C[C@H](N[C@@H](CCc1ccccc1)C(=O)O)C(=O)N1C(=O)N(C)C[C@H]1C(=O)O", "note": "[(4S)-1-methyl-3-[(2S)-2-[N-((1S)-1-carboxy-3-phenylpropyl)amino]propionyl]-2-oxo-imidazolidine-4-carboxylic acid]", "values": [{"measurement": "Mortality", "setting": "rats", "value": "no rats was died"}]}
{"compound": "C[C@H](N[C@@H](CCc1ccccc1)C(=O)O)C(=O)N1C(=O)N(C)C[C@H]1C(=O)O.Cl", "note": "[(4S)-1-methyl-3-[(2S)-2-[N-((1S)-1-carboxy-3-phenylpropyl)amino]propionyl]-2-oxo-imidazolidine-4-carboxylic acid hydrochloride]", "values": [{"measurement": "Inhibition of cardiac hypertrophy (in words)", "setting": "[1]", "value": "clear inhibition of cardiac hypertrophy"}, {"measurement": "Relative heart weight (weight of heart per 100 g of body weight)", "setting": "[1]; groups of 9, non-administ. group 0.36 ± 0.013, ** significant at 0.1% level", "value": "0.33 ± 0.012", "unit": "g"}, {"measurement": "Inhibitory ratio, relative heart weight", "setting": "[1]; versus non-administ. group", "value": 8, "unit": "%"}]}
{"compound": "CCOC(=O)[C@H](CCc1ccccc1)N[C@@H](C)C(=O)N1C(=O)N(C)C[C@H]1C(=O)O", "note": "[(4S)-1-methyl-3-[(2S)-2-[N-((1S)-1-ethoxycarbonyl-3-phenylpropyl)amino]propionyl]-2-oxo-imidazolidine-4-carboxylic acid]", "values": [{"measurement": "Mortality", "setting": "rats", "value": "no rats was died"}, {"measurement": "Inhibition of increase of heart weight (in words)", "setting": "[2]; spontaneously hypertensive rats", "value": "significantly inhibited increase of heart weight"}]}
{"compound": "CCOC(=O)[C@H](CCc1ccccc1)N[C@@H](C)C(=O)N1C(=O)N(C)C[C@H]1C(=O)O.Cl", "note": "[(4S)-1-methyl-3-[(2S)-2-[N-((1S)-1-ethoxycarbonyl-3-phenylpropyl)amino]propionyl]-2-oxo-imidazolidine-4-carboxylic acid hydrochloride]", "values": [{"measurement": "Inhibition of cardiac hypertrophy (in words)", "setting": "[2]; SHR", "value": "clear inhibition of cardiac hypertrophy"}, {"measurement": "Relative heart weight (weight of heart per 100 g of body weight)", "setting": "[2]; SHR, groups of 6, non-administ. group 0.399 ± 0.01, * significant at 1% level", "value": "0.34 ± 0.01", "unit": "g"}, {"measurement": "Sectional area of heart", "setting": "[2]; SHR, groups of 6, non-administ. group 66.8 ± 4.0, * significant at 1% level", "value": "57.9 ± 2.9", "unit": "mm^2"}, {"measurement": "Inhibitory ratio, relative heart weight", "setting": "[2]; [3]", "value": 13, "unit": "%"}, {"measurement": "Inhibitory ratio, sectional area of heart", "setting": "[2]; [3]", "value": 13, "unit": "%"}]}
